In article PMC6485937 (Archives of toxicology, 2016):

Experiments:
[1] = test system: D. japonica cholinesterase (DjChE); assay: Substrate hydrolysis by DjChE in homogenates; type: biochemical, Dugesia japonica; conditions: mean ± SE of 6 independent experiments
[2] = test system: D. japonica cholinesterase (DjChE); assay: Kinetics of irreversible; type: biochemical, Dugesia japonica; conditions: for kr (bimolecular rate constant), rates of inhibition by carbamylating agents / kr (bimolecular rate constant), rates of inhibition by OP oxons: 1 mM ATCh, room temperature, mean± 95% confidence intervals; for Inhibition of ATCh or BTCh hydrolysis: 1 mM ATCh or BTCh
[3] = test system: diethylphosphoryl DjChE (OP inhibited D. japonica cholinesterase); assay: Reactivation of OP inhibited DjChE by oximes or NaF; type: biochemical, Dugesia japonica
[4] = in mammals; ref Radić et al. 2012; cited from earlier work
human AChE = human AChE in vitro; ref Radić et al. 2013; cited from earlier work

CC(=O)SCC[N+](C)(C)C [ATCh, acetylthiocholine]
Km [1]: 123 ± 6 µM

CCCC(=O)SCC[N+](C)(C)C [BTCh, butyrylthiocholine]
Km [1]: 59 ± 4 µM

CNC(=O)Oc1cccc2ccccc12 [Carbaryl, carbaryl]
kr (bimolecular rate constant), rates of inhibition by carbamylating agents [2]: 0.00064± 0.00008 × 10^5 M^−1 min^−1

CCOP(=O)(OCC)Oc1cc(C)nc(C(C)C)n1 [Diazinon oxon, diazinon oxon]
kr (bimolecular rate constant), rates of inhibition by OP oxons [2]: 22±2 × 10^5 M^−1min^−1

COP(=O)(OC)OC=C(Cl)Cl [Dichlorvos, dichlorvos]
kr (bimolecular rate constant), rates of inhibition by OP oxons [2]: 9.1± 0.9 × 10^5 M^−1min^−1

CCOC(=O)CC(SP(=O)(OC)OC)C(=O)OCC (stereo not shown) [Malaoxon, malaoxon]
kr (bimolecular rate constant), rates of inhibition by OP oxons [2]: 0.14± 0.01 × 10^5 M^−1min^−1

[F-].[Na+] [NaF, sodium fluoride]
Reactivation rate of 10 mM NaF relative to 4 mM 2-PAM ([3]; 10 mM NaF vs 4 mM 2-PAM): four times faster | mean kobs of reactivation ([3]; 10 mM NaF, OP inhibited DjChE): 0.023 min⁻¹

CN(C)C(=O)Oc1cccc([N+](C)(C)C)c1 [Neostigmine, neostigmine]
kr (bimolecular rate constant), rates of inhibition by carbamylating agents [2]: 1.3±0.2 × 10^5 M^−1 min^−1

CCOP(=O)(OCC)Oc1ccc([N+](=O)[O-])cc1 [Paraoxon, paraoxon]
kr (bimolecular rate constant), rates of inhibition by OP oxons [2]: 1.7± 0.1 × 10^5 M^−1min^−1

CNC(=O)Oc1ccc2c(c1)[C@]1(C)CCN(C)[C@@H]1N2C [Physostigmine, physostigmine]
kr (bimolecular rate constant), rates of inhibition by carbamylating agents [2]: 0.32± 0.02 × 10^5 M^−1 min^−1

CN(C)C(=O)Oc1ccc[n+](C)c1 [Pyridostigmine, pyridostigmine]
kr (bimolecular rate constant), rates of inhibition by carbamylating agents [2]: 0.10± 0.01 × 10^5 M^−1 min^−1

O=C(C=NO)NCCN1CCCCCC1 [RS194B]
Reactivation rate compared with 2-PAM ([3]; 4 mM oxime, diazinon oxon inhibited DjChE): significantly faster than 2-PAM | Crossing of the blood-brain barrier [4]: crosses the blood-brain barrier | Rate of reactivation relative to equimolar 2-PAM (human AChE): 2.5 times faster

CC(C)NP(=O)(NC(C)C)OP(=O)(NC(C)C)NC(C)C [iso-OMPA, Tetraisopropyl pyrophosphoramide]
Inhibition of ATCh or BTCh hydrolysis ([2]; 5 mM iso-OMPA): only slow inhibition | Inhibition of ATCh or BTCh hydrolysis ([2]; incubation with up to 1 mM iso-OMPA): unable to significantly inhibit

chlorpyrifos oxon
kr (bimolecular rate constant), rates of inhibition by OP oxons [2]: 3.0± 0.3 × 10^5 M^−1min^−1

pyridine-2-aldoxime [2-PAM]
mean kobs of reactivation ([3]; 4 mM 2-PAM, diazinon oxon inhibited DjChE): 0.0058 min⁻¹
